Test results published in BigSolDB 2.1.

Conditions: in water

NCCS(=O)(=O)O gave a solubility (mole fraction) (278.05 K) of 0.00796, a solubility (mole fraction) (281.25 K) of 0.00932 and a solubility (mole fraction) (288.75 K) of 0.0119. It also gave a solubility (mole fraction) (289.85 K) of 0.0128, a solubility (mole fraction) (298.15 K) of 0.017 and a solubility (mole fraction) (305.35 K) of 0.0203. It also gave a solubility (mole fraction) (308.25 K) of 0.0213, a solubility (mole fraction) (310.95 K) of 0.0233 and a solubility (mole fraction) (314.85 K) of 0.0261. The solubility (mole fraction) (318.35 K) was 0.0291, the solubility (mole fraction) (321.55 K) was 0.0321 and the solubility (mole fraction) (331.75 K) was 0.0403. The solubility (mole fraction) (340.95 K) was 0.0477, the solubility (mole fraction) (345.15 K) was 0.0526 and the solubility (mole fraction) (350.25 K) was 0.0585. It also gave a solubility (mole fraction) (353.55 K) of 0.0646.
